≈ marks a conversion by molar mass, not a printed value. Read-outs that look alike come from different tables or passages of the source.
Columns and labels:
[1] = test system: HIV-1 IIIB strain; assay: MT-4 HIV Wild Type Virus Infection Assay (IIIB Virus); type: cell-based; conditions: Human immunodeficiency virus 1, IIIB, MT4, 120 h, MT-4 cells acutely infected with HIV-1 IIIB, 5 day incubation, Cell-titer glo
Protocol: Test compounds and controls were serially diluted and spotted in replicate into 384 well black assay plates via acoustic transfer (Echo). MT-4 cells were grown in batch, centrifuged and resuspended into fresh CCM media (RPMI w/10% FBS, 1% PS) at 2×10^6 cells/ml. MT-4 cells were acutely infected with HIV-1 IIIB strain. The size of each infection mix was scaled by the number of sample plates to be tested. Each infection mix was transferred into 5 mL closed tubes and nutated rapidly on a shaker at 37° C. incubator for 1 hour. The infection mixes were then diluted 25× in fresh cell culture media and then added to assay plates at 40 μL per well using a ViaFlo 384 pipettor. After 5 day incubation at 37° C. in a CO2 incubator, assay plates were processed with Cell-titer glo reagent using a ViaFlo 384 with an addition/mixing program. Plates were read immediately on Envision reader. Assay signals were plotted and dose response curves generated to determine individual compound EC50s.

[2] = PBS Stability Assay; type: physicochemical; conditions: buffer, pH 7.4, 2 μM, phosphate buffered saline pH 7.4; read-out: PBS T½
Protocol: Reagents. Stock solutions of test compounds in dimethyl sulfoxide (DMSO) having a final concentration of 10 mM were prepared and used in all experiments. Sekisui XenoTech (Kansas City, KS) provided pooled intestinal S9 fractions. All other chemicals were purchased from Sigma-Aldrich (St. Louis, MO) or VWR (West Chester, PA). Internal Standard/Quench (IS/Q) used to stop reactions was 100 nM labetalol in (by volume) formic acid (1%) and acetonitrile (99%).
PBS Stability Assay: For each test compound, an aliquot of the test compound was added to phosphate buffered saline (137 mM NaCl, 2.7 mM KCl, 10 mM phosphate buffer), pH 7.4. The incubation was initiated by the addition of the test compound to PBS to a final concentration of 2 μM. At 0, 10, 20, 30, 60 and 120 min, 25 μL aliquots of the incubation mixture were transferred to plates containing 225 μl of IS/Q solution. After quenching, the plates were centrifuged at 3000×g for 30 minutes. 150 μL aliquots of each supernatant were transferred to new plates and 150 μL water was added. Aliquots (10 μL) of the prepared samples were analyzed on a Thermo Q-Exactive mass spectrometer as described below.
Liquid Chromatography-Mass Spectrometry: Quantification of test compounds and control substrate was performed by analyte/internal standard peak area ratio (PAR) values measured on a Thermo Q-Exactive mass spectrometer coupled to a Dionex UltiMate 3000 HPLC with a Leap Technologies HTC PAL autosampler. The column used for analysis was a Thermo Scientific Hypersil GOLD (1.9 μm particle size, 50×2.1 mm). Mobile phase A consisted of 0.1% (v/v) formic acid in water. Mobile phase B consisted of 0.1% (v/v) formic acid in acetonitrile. Elution of analytes was achieved by a series of linear gradients varying the proportions of A and B. The mass spectrometer was calibrated on a weekly basis and mass tolerance of 5 ppm was used.
Data Analysis. Metabolic stabilities were determined by measuring the rates of disappearance of test compound and positive control substrate. Data (% of substrate remaining) were plotted on a semi-log scale and fitted using an exponential decline model:
where • Ct% of substrate remaining at time=t • C0% of substrate remaining at time=0 • t time • T½ half-life • The Half-life (T½) is determined by the following equation:
[formula] • Assuming a first-order reaction, the slope (k) is extrapolated from the aforementioned plotted data.

[3] = molecular target: bovine intestinal alkaline phosphatase (Bos taurus (Bovine), UniProt P19111); assay: BiALP: conversion by bovine intestinal alkaline phosphatase; type: in vitro ADME; conditions: 2 μM substrate, 100 ng/mL iALP, Tris pH 7.8, 37° C., 60 minutes; for [Intermediate A] or [Amprenavir]: parent formed
Sequence of bovine intestinal alkaline phosphatase (P19111 20-506): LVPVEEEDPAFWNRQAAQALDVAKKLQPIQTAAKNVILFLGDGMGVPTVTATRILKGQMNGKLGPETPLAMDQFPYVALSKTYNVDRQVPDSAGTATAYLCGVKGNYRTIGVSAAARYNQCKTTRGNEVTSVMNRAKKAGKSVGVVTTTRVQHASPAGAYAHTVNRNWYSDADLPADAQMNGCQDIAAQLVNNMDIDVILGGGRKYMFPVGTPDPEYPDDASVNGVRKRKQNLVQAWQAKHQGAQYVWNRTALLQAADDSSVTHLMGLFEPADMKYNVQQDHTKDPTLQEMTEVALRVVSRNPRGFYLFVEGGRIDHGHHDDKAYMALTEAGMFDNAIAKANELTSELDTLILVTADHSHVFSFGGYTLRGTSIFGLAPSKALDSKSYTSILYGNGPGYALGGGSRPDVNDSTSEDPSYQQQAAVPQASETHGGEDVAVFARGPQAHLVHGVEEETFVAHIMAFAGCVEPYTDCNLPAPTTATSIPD
Protocol: Fosamprenavir and its parent compound (amprenavir) were purchased from Millipore Sigma (St. Louis, MO). Test compounds, Intermediate A, fosamprenavir, and amprenavir were each separately dissolved in dimethyl sulfoxide (DMSO) at a concentration of 10 mM to form stock solutions.
All other chemicals were purchased from Millipore Sigma (St. Louis, MO) and Thermo Fisher Scientific (Waltham, MA). […] Internal Standard/Quench (IS/Q) was 100 nM labetalol in 99:1 (v/v) acetonitrile/formic acid.
Incubations were performed with Tris buffer alone (0.1 M Tris-HCl pH 7.8 containing 1 mM MgCl2 and 1 mM ZnCl2) or the same Tris buffer further containing 100 ng/mL iALP (0.01 units/mL). Triplicate 100 μL aliquots of Tris buffer±iALP were warmed to 37° C. and the reactions were initiated by the addition of the test compound or fosamprenavir to obtain final substrate concentrations of 2 μM. Incubations were then continued at 37° C. At 60 minutes, reactions were terminated by the addition of 200 μl of IS/Q and mixed by pipette. […] Aliquots (150 μL) of the supernatants were transferred to fresh plates containing 150 μL of water. Aliquots (15 μL) of the diluted supernatants were analyzed by mass spectrometry as described below.
Quantification of the test compounds and fosamprenavir was performed by analyte/internal standard peak area ratios (PARs) with comparison to 2 μM Intermediate A and amprenavir, respectively. The LC instrumentation consisted of a Thermo Scientific Vanquish pump and a Thermo Hypersil Gold column (1.9 μm particle size, 2.1×50 mm). […] The MS instrument was a Thermo Q Exactive™ Plus operating in positive ionization mode with mass tolerance of 5 ppm and calibrated on a twice weekly basis.

[4] = Solubility in FaSSIF; conditions: 23 °C, pH 6.5, fassif, thermodynamic from solid
Protocol: Buffer Preparation: Fasted State Simulated Intestinal Fluid (FaSSIF): Simulated Intestinal Fluid (SIF) powder containing a complex of Taurocholate and Lecithin (4:1 molar ratio) was obtained from Biorelevant. 0.056 g of SIF powder was added to 25 mL of buffer, adjusted to pH 6.5, containing 0.011 g of NaOH (pellets), 0.099 g of NaH2PO4 (monohydrate), and 0.155 g of NaCl. The buffer was prepared with HPLC H2O. The SIE powder was stirred until completely dissolved and allowed to stand for 2 hours.
Test Compounds: Each test compound was placed in a vial containing approximately 7 mg of material. Aliquots were weighed out for each assay media at each time point to be analyzed. The buffer was added to each vial such that the final dose concentration of 5 mg/mL was achieved. Samples were then vortexed for 5-10 seconds.
The plate was sealed with a pierceable heat seal and analyzed by HPLC-UV.

Structure (SMILES)	[Compound] [3]	EC50 [1]	solubility at 2 h [4]	also measured
COC(=O)N[C@H](C(=O)N[C@@H](Cc1ccc(C#Cc2cnc(N3CC4CCC(C3)N4C3COC3)nc2)cc1)[C@H](CN(Cc1c(F)cc(-c2ccn(C(F)F)n2)cc1F)NC(=O)[C@@H](NC(=O)OC)C(C)(C)C(F)(F)F)OC(=O)OCOC(=O)CC(C)(C)c1c(C)cc(C)cc1OP(=O)(O)O)C(C)(C)C(F)(F)F [Example 12]	–	–	–	EC50 ([1]; read-out: EC50): 23.4 nM; half-life at 2 μM [2]: 4.92 h
COC(=O)N[C@H](C(=O)N[C@@H](Cc1ccc(C#Cc2ccc(N3CC4CCC(C3)N4C3COC3)nc2)cc1)[C@H](CN(Cc1c(F)cc(-c2ccn(C(F)F)n2)cc1F)NC(=O)[C@@H](NC(=O)OC)C(C)(C)C(F)(F)F)OC(=O)CC(C)(C)c1c(CC(=O)NC(CC(=O)O)C(=O)O)cc(C)cc1CP(=O)(O)O)C(C)(C)C(F)(F)F (stereo partly shown) [Example 23]	2107.1 nM	–	–	–
COC(=O)N[C@H](C(=O)N[C@@H](Cc1ccc(C#Cc2cnc(N3CC4CCC(C3)N4C3COC3)nc2)cc1)[C@H](CN(Cc1c(F)cc(-c2ccn(C(F)F)n2)cc1F)NC(=O)[C@@H](NC(=O)OC)C(C)(C)C(F)(F)F)OC(=O)CC(C)(C)c1c(CC(=O)N([C@H](C)C(=O)O)S(=O)(=O)O)cc(C)cc1OP(=O)(O)O)C(C)(C)C(F)(F)F [Example 32]	1435.5 nM	–	–	–
COC(=O)N[C@H](C(=O)N[C@@H](Cc1ccc(C#Cc2cnc(N3CC4CCC(C3)N4C3COC3)nc2)cc1)[C@H](CN(Cc1c(F)cc(-c2ccn(C(F)F)n2)cc1F)NC(=O)[C@@H](NC(=O)OC)C(C)(C)C(F)(F)F)OC(=O)CC(C)(C)c1c(CC(=O)N([C@H](C)C(=O)O)S(=O)(=O)O)cccc1OP(=O)(O)O)C(C)(C)C(F)(F)F [Example 39]	1310.3 nM	–	–	–
COC(=O)N[C@H](C(=O)N[C@@H](Cc1ccc(C#Cc2cnc(N3CC4CCC(C3)N4C3COC3)nc2)cc1)[C@H](CN(Cc1c(F)cc(-c2ccn(C(F)F)n2)cc1F)NC(=O)[C@@H](NC(=O)OC)C(C)(C)C(F)(F)F)OC(=O)OCOC(=O)CC(C)(C)c1c(CC(=O)N2CCN(CC(=O)O)CC2)cc(C)cc1OP(=O)(O)O)C(C)(C)C(F)(F)F [Example 77]	2259 nM	8.3 nM	2760 µg/mL (≈ 1640 µM)	–
COC(=O)N[C@H](C(=O)N[C@@H](Cc1ccc(C#Cc2cnc(N3CC4CCC(C3)N4C3COC3)nc2)cc1)[C@H](CN(Cc1c(F)cc(-c2ccn(C(F)F)n2)cc1F)NC(=O)[C@@H](NC(=O)OC)C(C)(C)C(F)(F)F)OC(=O)OCOC(=O)CC(C)(C)c1c(CC(=O)N2CCCC2C(=O)O)cc(C)cc1OP(=O)(O)O)C(C)(C)C(F)(F)F (stereo partly shown) [Example 78]	2070.6 nM	3.1 nM	4390 µg/mL (≈ 2650 µM)	–
COC(=O)N[C@H](C(=O)N[C@@H](Cc1ccc(C#Cc2cnc(N3CC4CCC(C3)N4C3COC3)nc2)cc1)[C@H](CN(Cc1c(F)cc(-c2ccn(C(F)F)n2)cc1F)NC(=O)[C@@H](NC(=O)OC)C(C)(C)C(F)(F)F)OC(=O)CC(C)(C)c1c(CC(=O)N2CCN(S(C)(=O)=O)CC2)cc(C)cc1OP(=O)(O)O)C(C)(C)C(F)(F)F [Example 80, (5S,10S,11S,14S)-8-(4-(1-(difluoromethyl)-1H-pyrazol-3-yl)-2,6-difluorobenzyl)-11-(4-((2-(8-(oxetan-3-yl)-3,8-diazabicyclo[3.2.1]octan-3-yl)pyrimidin-5-yl)ethynyl)benzyl)-3,6,13,16-tetraoxo-5,14-bis(1,1,1-trifluoro-2-methylpropan-2-yl)-2,17-dioxa-4,7,8,12,15-pentaazaoctadecan-10-yl 3-methyl-3-(4-methyl-2-(2-(4-(methylsulfonyl)piperazin-1-yl)-2-oxoethyl)-6-(phosphonooxy)phenyl)butanoate]	2507.9 nM	735 nM	< 1000 µg/mL	biALP Intermediate A or [Amprenavir] (% of total) [3]: 0 % of total; [Intermediate A] or [Amprenavir] [3]: 0 nM
COC(=O)N[C@H](C(=O)N[C@@H](Cc1ccc(C#Cc2cnc(N3CC4CCC(C3)N4C3COC3)nc2)cc1)[C@H](CN(Cc1c(F)cc(-c2ccn(C(F)F)n2)cc1F)NC(=O)[C@@H](NC(=O)OC)C(C)(C)C(F)(F)F)OC(=O)CC(C)(C)c1c(CC(=O)N2CCN(S(N)(=O)=O)CC2)cc(C)cc1OP(=O)(O)O)C(C)(C)C(F)(F)F [Example 81, (5S,10S,11S,14S)-8-(4-(1-(difluoromethyl)-1H-pyrazol-3-yl)-2,6-difluorobenzyl)-11-(4-((2-(8-(oxetan-3-yl)-3,8-diazabicyclo[3.2.1]octan-3-yl)pyrimidin-5-yl)ethynyl)benzyl)-3,6,13,16-tetraoxo-5,14-bis(1,1,1-trifluoro-2-methylpropan-2-yl)-2,17-dioxa-4,7,8,12,15-pentaazaoctadecan-10-yl 3-methyl-3-(4-methyl-2-(2-oxo-2-(4-sulfamoylpiperazin-1-yl)ethyl)-6-(phosphonooxy)phenyl)butanoate]	2385.2 nM	627 nM	< 1000 µg/mL	biALP Intermediate A or [Amprenavir] (% of total) [3]: 0 % of total; [Intermediate A] or [Amprenavir] [3]: 0 nM
CC(C)CN(C[C@@H](OP(=O)(O)O)[C@H](Cc1ccccc1)NC(=O)O[C@H]1CCOC1)S(=O)(=O)c1ccc(N)cc1 [Fosamprenavir, fosamprenavir, reference compound]	1605 nM	–	–	–

— patent US20250051375A1, “ANTI-HIV COMPOUNDS” (Gilead Sciences, Inc., priority 2023, published 2025)
